# Experimental data taken from patent publication US7338964B2, “2-substituted-1-deaza purine derivatives with adenosine receptor modulating activity” (Solvay Pharmaceuticals, B.V., priority 2004, dated 2008).
# Test system: not given
# Experiment: not given
# Details: not given
row,SMILES,melting point [°C]
1,"Cn1cnc2c(N)cc(N3OC4C=CC3CC4)nc21 (stereo not drawn) [Compound 1, 2-(2-oxa-3-azabicyclo[2.2.2]oct-5-en-3-yl)-6-amino-9-methyl-1-deazapurine]",169.9
2,"Cn1cnc2c(N)cc(NN=CCc3ccccc3)nc21 [Compound 3, 2-(2-phenylethyl-hydrazone)-6-amino-9-methyl-1-deazapurine]",182.1
3,"Cn1cnc2c(N)cc(NN=Cc3ccccc3)nc21 [Compound 4, 2-benzylhydrazone-6-amino-9-methyl-1-deazapurine]",231.7 to 232.8

# Target: T1, human adenosine-A1 receptors (Homo sapiens, UniProt P30542)
# T1 construct: expressed in transfected cells; host or cells: CHO cells
# T1 sequence (P30542 1-326): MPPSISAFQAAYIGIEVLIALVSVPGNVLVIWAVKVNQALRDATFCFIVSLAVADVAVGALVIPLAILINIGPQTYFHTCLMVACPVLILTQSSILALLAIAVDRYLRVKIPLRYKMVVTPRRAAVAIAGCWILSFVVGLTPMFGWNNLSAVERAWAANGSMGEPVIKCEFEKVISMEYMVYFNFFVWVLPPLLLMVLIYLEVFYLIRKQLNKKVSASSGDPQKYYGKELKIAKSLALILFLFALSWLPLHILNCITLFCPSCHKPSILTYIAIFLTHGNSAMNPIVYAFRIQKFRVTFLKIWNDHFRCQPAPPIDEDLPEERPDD
# Experiment: In vitro affinity for human adenosine-A1 receptors, [3H]DPCPX radioligand binding
# Details: human recombinant receptors expressed in CHO cells, read-out: Adenosine receptor affinity A1 pKi (converted)
# Procedure: Affinity of the compounds for human adenosine-A1 receptors was determined using the receptor binding assay described by A. Townsend-Nicholson and P. R. Schofield (Biol. Chem., 269, 2373, 1994), using human recombinant receptors expressed in CHO cells, and [^3H]DPCPX as radioligand.
row,SMILES,Ki [µM]
1,"COc1ccc(C=NNc2cc(N)c3ncn(C)c3n2)c(OC)c1 [Compound 6, 2-(2,4-dimethoxy-2-benzylhydrazon)-6-amino-9-methyl-1-deazapurine]",6.31
2,"Cn1cnc2c(N)cc(NN=CC3CCCCC3)nc21 [Compound 8, 2-(cyclohexylmethyl-hydrazone)-6-amino-9-methyl-1-deaza-purine]",3.16
3,"Cn1cnc2c(N)cc(NN=CCc3ccccc3)nc21 [Compound 3, 2-(2-phenylethyl-hydrazone)-6-amino-9-methyl-1-deazapurine]",2.51
4,"Cn1cnc2c(N)cc(NN=Cc3ccccc3)nc21 [Compound 4, 2-benzylhydrazone-6-amino-9-methyl-1-deazapurine]",3.98

# Target: T2, human adenosine-A2A receptors (Homo sapiens, UniProt P29274)
# T2 construct: expressed in transfected cells; host or cells: HEK-293 cells
# T2 sequence (P29274 whole entry): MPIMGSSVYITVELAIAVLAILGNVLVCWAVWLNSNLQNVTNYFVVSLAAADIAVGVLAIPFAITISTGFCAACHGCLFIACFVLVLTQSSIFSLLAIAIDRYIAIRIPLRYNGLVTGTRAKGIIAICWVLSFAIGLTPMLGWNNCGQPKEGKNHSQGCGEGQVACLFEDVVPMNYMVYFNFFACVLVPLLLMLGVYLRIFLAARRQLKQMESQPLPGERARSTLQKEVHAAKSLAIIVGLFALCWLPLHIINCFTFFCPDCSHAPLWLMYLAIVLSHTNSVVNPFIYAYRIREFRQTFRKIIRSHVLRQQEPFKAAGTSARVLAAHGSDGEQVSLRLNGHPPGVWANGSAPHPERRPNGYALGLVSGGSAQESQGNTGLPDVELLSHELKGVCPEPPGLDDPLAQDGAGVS
# Experiment: In vitro affinity for human adenosine-A2A receptors, [3H]CGS 21680 radioligand binding
# Details: human recombinant receptors expressed in HEK-293 cells, read-out: Adenosine receptor affinity A2A pKi (converted)
# Procedure: Affinity of the compounds for human adenosine-A2A receptors was determined using the receptor binding assay described by D. R. Luthin et al. (Mol. Pharmacol., 47, 307, 1995), using human recombinant receptors expressed in HEK-293 cells, and [^3H]CGS 21680 as radioligand.
row,SMILES,Ki [µM]
1,"COc1ccc(C=NNc2cc(N)c3ncn(C)c3n2)c(OC)c1 [Compound 6, 2-(2,4-dimethoxy-2-benzylhydrazon)-6-amino-9-methyl-1-deazapurine]",2
2,"Cn1cnc2c(N)cc(NN=CC3CCCCC3)nc21 [Compound 8, 2-(cyclohexylmethyl-hydrazone)-6-amino-9-methyl-1-deaza-purine]",2
3,"Cn1cnc2c(N)cc(N3OC4C=CC3CC4)nc21 (stereo not drawn) [Compound 1, 2-(2-oxa-3-azabicyclo[2.2.2]oct-5-en-3-yl)-6-amino-9-methyl-1-deazapurine]",15.8
4,"Cn1cnc2c(N)cc(N[C@H]3CC[C@@H](O)CC3)nc21 [Compound 2, 2-(cis-4-hydroxycyclohexylamino)-6-amino-9-methyl-1-deazapurine]",7.94
5,"Cn1cnc2c(N)cc(NN=CCc3ccccc3)nc21 [Compound 3, 2-(2-phenylethyl-hydrazone)-6-amino-9-methyl-1-deazapurine]",3.16
6,"COc1ccc(C=NNc2cc(N)c3ncn(C)c3n2)cc1 [Compound 5, 2-(4-methoxy-2-benzylhydrazon)-6-amino-9-methyl-1-deazapurine]",1
7,"Cn1cnc2c(N)cc(NN=Cc3ccccc3)nc21 [Compound 4, 2-benzylhydrazone-6-amino-9-methyl-1-deazapurine]",1.26

# Target: T3, human adenosine-A3 receptor (Homo sapiens, UniProt P0DMS8)
# T3 construct: expressed in transfected cells; membrane preparations
# T3 sequence (P0DMS8 1-318): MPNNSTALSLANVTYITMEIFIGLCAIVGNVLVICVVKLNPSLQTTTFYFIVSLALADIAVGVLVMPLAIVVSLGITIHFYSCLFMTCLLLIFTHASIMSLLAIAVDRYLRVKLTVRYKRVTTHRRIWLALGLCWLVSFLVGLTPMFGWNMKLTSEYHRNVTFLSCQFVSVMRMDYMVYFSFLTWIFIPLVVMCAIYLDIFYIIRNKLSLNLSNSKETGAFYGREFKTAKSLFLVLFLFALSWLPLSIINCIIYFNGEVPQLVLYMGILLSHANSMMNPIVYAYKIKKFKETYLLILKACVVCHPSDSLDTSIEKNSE
# Experiment: In vitro affinity for human adenosine-A3 receptors, [125I]-AB-MECA radioligand binding
# Details: human recombinant (HEK 293) cell membranes, read-out: Adenosine receptor affinity A3 pKi (converted)
# Procedure: Affinity of the compounds for human adenosine-A3 receptors was determined using the receptor binding assay described by C. A. Salvatore et al.: “Molecular cloning and characterization of the human A3 adenosine receptor”, Proc. Natl. Acad. Sci. USA, 90, 10365-10369, 1993. Briefly, membrane preparations were obtained from human recombinant (HEK 293) cells in which the human adenosine-A3 receptor was stably expressed. Membranes were incubated at 22° C. for 90 minutes with [^125I]-AB-MECA in the absence or presence of test compounds in a concentration range from 10 μM down to 0.1 nM, diluted in a suitable buffer. Separation of bound radioactivity from free was done by filtration through Packard GF/B glass fiber filters with several washings with ice-cold buffer using a Packard cell harvester. Bound radioactivity was measured with a scintillation counter (Topcount, Packard) using a liquid scintillation cocktail (Microscint 0, Packard). Measured radioactivity was plotted against the concentration of the displacing test compound and displacement curves were calculated by four-parameter logistic regression, resulting in IC50 values, i.e. that concentration of displacing compound by which 50% of the radioligand is displaced. […]
row,SMILES,Ki [µM]
1,"Cn1cnc2c(N)cc(NN=Cc3ccccc3)nc21 [Compound 4, 2-benzylhydrazone-6-amino-9-methyl-1-deazapurine]",2.51
